In ChEMBL document CHEMBL5325467, “Discovery of novel hypoxia-activated, nitroimidazole constructed multi-target kinase inhibitors on the basis of AZD9291 for the treatment of human lung cancer” (Bioorg Med Chem, 2023):

Key:
[1] = test system: NCI-H1975; experiment: Antiproliferative activity against human NCI-H1975 cells harboring EGFR L858R/T790M mutant assessed as inhibition of cell growth incubated for 72 hrs under hypoxia condition by SRB assay; assay type: functional, cell-based; conditions: NCI-H1975, 72 h
[2] = test system: NCI-H1975; experiment: Antiproliferative activity against human NCI-H1975 cells harboring EGFR L858R/T790M mutant assessed as inhibition of cell growth incubated for 72 hrs under normoxia condition by SRB assay; assay type: functional, cell-based; conditions: NCI-H1975, 72 h
[3] = test system: HCC827; experiment: Antiproliferative activity against human HCC827 cells harboring EGFR del19 mutant assessed as inhibition of cell growth incubated for 72 hrs under normoxia condition by SRB assay; assay type: functional, cell-based; conditions: HCC827, 72 h
[4] = test system: HCC827; experiment: Antiproliferative activity against human HCC827 cells harboring EGFR del19 mutant assessed as inhibition of cell growth incubated for 72 hrs under hypoxia condition by SRB assay; assay type: functional, cell-based; conditions: HCC827, 72 h
[5] = molecular target: T1, Platelet-derived growth factor receptor alpha (Homo sapiens, UniProt P16234); experiment: Inhibition of PDGFRalpha (unknown origin) at 1 uM relative to control
[6] = molecular target: T2, Epidermal growth factor receptor (Homo sapiens, UniProt P00533); experiment: Inhibition of EGFR (unknown origin) at 1 uM relative to control
[7] = molecular target: Tyrosine-protein kinase ITK/TSK (Homo sapiens) (UniProt Q08881); experiment: Inhibition of ITK (unknown origin) at 1 uM relative to control
[8] = molecular target: Fibroblast growth factor receptor 1 (Homo sapiens) (UniProt P11362); experiment: Inhibition of FGFR1 (unknown origin) at 1 uM relative to control
[9] = test system: Serine/threonine-protein kinase B-raf (Homo sapiens), P15056 [V600E]; experiment: Inhibition of BRAF V600E mutant (unknown origin) at 1 uM relative to control
[10] = (§1) Reductive activation in PBS at pH 7.4 assessed as A14-1 metabolite formation at 1 uM incubated for 30 mins in presence of cysteine, NADPH and nitroreductase under N2 condition by MS/MS analysis; assay type: ADME; conditions: buffer, pH 7.4, 0.5 h
[11] = species on record: Homo sapiens; experiment: Inhibition of ABL (unknown origin) at 1 uM relative to control
[12] = molecular target: Tyrosine-protein kinase receptor UFO (Homo sapiens) (UniProt P30530); experiment: Inhibition of AXL (unknown origin) at 1 uM relative to control
[13] = molecular target: Proto-oncogene tyrosine-protein kinase Src (Homo sapiens) (UniProt P12931); experiment: Inhibition of SRC (unknown origin) at 1 uM relative to control
[14] = molecular target: MAP kinase-activated protein kinase 2 (Homo sapiens) (UniProt P49137); experiment: Inhibition of MAPKAPK2 (unknown origin) at 1 uM relative to control
[15] = molecular target: RAC-alpha serine/threonine-protein kinase (Homo sapiens) (UniProt P31749); experiment: Inhibition of AKT1 (unknown origin) at 1 uM relative to control
[16] = Reductive activation in PBS at pH 7.4 assessed as hydroxylamine intermediate formation at 1 uM incubated for 30 mins in presence of cysteine, NADPH and nitroreductase under hypoxia condition by MS/MS analysis; conditions: buffer, pH 7.4, 0.5 h
[17] = (§2) Reductive activation in PBS at pH 7.4 assessed as A14-1 metabolite formation at 1 uM incubated for 30 mins in presence of cysteine, NADPH and nitroreductase under hypoxia condition by MS/MS analysis; assay type: ADME; conditions: buffer, pH 7.4, 0.5 h
[18] = molecular target: T3, Tyrosine-protein kinase JAK2 (Homo sapiens, UniProt O60674); experiment: Inhibition of JAK2 (unknown origin) at 1 uM relative to control
[19] = molecular target: T4, Vascular endothelial growth factor receptor 3 (Homo sapiens, UniProt P35916); experiment: Inhibition of FLT4 (unknown origin) at 1 uM relative to control
[20] = molecular target: Proto-oncogene tyrosine-protein kinase receptor Ret (Homo sapiens) (UniProt P07949); experiment: Inhibition of RET (unknown origin) at 1 uM relative to control
[21] = molecular target: T5, Proto-oncogene tyrosine-protein kinase ROS (Homo sapiens, UniProt P08922); experiment: Inhibition of ROS1 (unknown origin)
[22] = molecular target: T3, Tyrosine-protein kinase JAK2; experiment: Inhibition of JAK2 (unknown origin)
[23] = molecular target: Mitogen-activated protein kinase 1 (Homo sapiens) (UniProt P28482); experiment: Inhibition of ERK2 (unknown origin) at 1 uM relative to control
[24] = test system: Epidermal growth factor receptor (Homo sapiens), P00533 [L858R,T790M,C797S]; experiment: Inhibition of EGFR L858R/T790M/C797S triple mutant (unknown origin) at 1 uM relative to control
[25] = molecular target: Mitogen-activated protein kinase 10 (Homo sapiens) (UniProt P53779); experiment: Inhibition of JNK3 (unknown origin) at 1 uM relative to control
[26] = molecular target: High affinity nerve growth factor receptor (Homo sapiens) (UniProt P04629); experiment: Inhibition of TRKA (unknown origin) at 1 uM relative to control
[27] = as §1, with “2-amino-3-[2-amino-5-[amino(carboxy)methyl]sulfanyl-1-[2-[2-[2-methoxy-5-[[4-(1-methylindol-3-yl)pyrimidin-2-yl]amino]phenoxy]ethoxy]ethyl]imidazol-4-yl]sulfanyl-propanoic acid” for “A14-1”; assay type: ADME; conditions: buffer, pH 7.4, 0.5 h
[28] = molecular target: Epidermal growth factor receptor (Homo sapiens, UniProt P00533, L858R/T790M); experiment: Inhibition of EGFR L858R/T790M mutant (unknown origin) by mobility shift assay
[29] = Ratio of IC50 for antiproliferative activity against human NCI-H1975 cells harboring EGFR L858R/T790M mutant under normoxia condition to IC50 for antiproliferative activity against human NCI-H1975 cells harboring EGFR L858R/T790M mutant under hypoxia condition; assay type: functional
[30] = Ratio of IC50 for antiproliferative activity against human HCC827 cells harboring EGFR del19 mutant under normoxia condition to IC50 for antiproliferative activity against human HCC827 cells harboring EGFR del19 mutant under hypoxia condition; assay type: functional
[31] = molecular target: Mast/stem cell growth factor receptor Kit (Homo sapiens) (UniProt P10721); experiment: Inhibition of KIT (unknown origin) at 1 uM relative to control
[32] = molecular target: Tyrosine-protein kinase JAK3 (Homo sapiens) (UniProt P52333); experiment: Inhibition of JAK3 (unknown origin) at 1 uM relative to control
[33] = (§3) Reductive activation in PBS at pH 7.4 assessed as A14-1 metabolite formation at 1 uM incubated for 30 mins in presence of cysteine, NADPH and nitroreductase under normoxia condition by MS/MS analysis; assay type: ADME; conditions: buffer, pH 7.4, 0.5 h
[34] = molecular target: Hepatocyte growth factor receptor (Homo sapiens) (UniProt P08581); experiment: Inhibition of MET (unknown origin) at 1 uM relative to control
[35] = molecular target: ALK tyrosine kinase receptor (Homo sapiens) (UniProt Q9UM73); experiment: Inhibition of ALK (unknown origin) at 1 uM relative to control
[36] = molecular target: T5, Proto-oncogene tyrosine-protein kinase ROS; experiment: Inhibition of ROS1 (unknown origin) at 1 uM relative to control
[37] = molecular target: T2, Epidermal growth factor receptor; experiment: Inhibition of wild type EGFR (unknown origin) by mobility shift assay
[38] = as §2, with “2-amino-3-[2-amino-5-[amino(carboxy)methyl]sulfanyl-1-[2-[2-[2-methoxy-5-[[4-(1-methylindol-3-yl)pyrimidin-2-yl]amino]phenoxy]ethoxy]ethyl]imidazol-4-yl]sulfanyl-propanoic acid” for “A14-1”; assay type: ADME; conditions: buffer, pH 7.4, 0.5 h
[39] = molecular target: Receptor-type tyrosine-protein kinase FLT3 (Homo sapiens, UniProt P36888); experiment: Inhibition of FLT3 (unknown origin)
[40] = molecular target: Tyrosine-protein kinase SYK (Homo sapiens) (UniProt P43405); experiment: Inhibition of SYK (unknown origin) at 1 uM relative to control
[41] = molecular target: T4, Vascular endothelial growth factor receptor 3; experiment: Inhibition of FLT4 (unknown origin)
[42] = molecular target: Receptor tyrosine-protein kinase erbB-2 (Homo sapiens) (UniProt P04626); experiment: Inhibition of HER2 (unknown origin) at 1 uM relative to control
[43] = molecular target: Vascular endothelial growth factor receptor 2 (Homo sapiens) (UniProt P35968); experiment: Inhibition of KDR (unknown origin) at 1 uM relative to control
[44] = molecular target: 3-phosphoinositide-dependent protein kinase 1 (Homo sapiens) (UniProt O15530); experiment: Inhibition of PDK1 (unknown origin) at 1 uM relative to control
[45] = molecular target: Tyrosine-protein kinase BTK (Homo sapiens) (UniProt Q06187); experiment: Inhibition of BTK (unknown origin) at 1 uM relative to control
[46] = molecular target: Cyclin-dependent kinase 4/cyclin D1 (Homo sapiens) (UniProt P11802+P24385); experiment: Inhibition of CDK4/CyclinD1 (unknown origin) at 1 uM relative to control; assay type: protein-complex assay
[47] = molecular target: T1, Platelet-derived growth factor receptor alpha; experiment: Inhibition of PDGFRalpha (unknown origin)
[48] = molecular target: Focal adhesion kinase 1 (Homo sapiens) (UniProt Q05397); experiment: Inhibition of FAK (unknown origin) at 1 uM relative to control
[49] = as §3, with “2-amino-3-[2-amino-5-[amino(carboxy)methyl]sulfanyl-1-[2-[2-[2-methoxy-5-[[4-(1-methylindol-3-yl)pyrimidin-2-yl]amino]phenoxy]ethoxy]ethyl]imidazol-4-yl]sulfanyl-propanoic acid” for “A14-1”; assay type: ADME; conditions: buffer, pH 7.4, 0.5 h
[50] = molecular target: Receptor-type tyrosine-protein kinase FLT3 (Homo sapiens) (UniProt P36888); experiment: Inhibition of FLT3 (unknown origin) at 1 uM relative to control

Chain of Epidermal growth factor receptor (Homo sapiens, UniProt P00533, L858R/T790M) (P00533 25-1210 T790M/L858R limits assumed): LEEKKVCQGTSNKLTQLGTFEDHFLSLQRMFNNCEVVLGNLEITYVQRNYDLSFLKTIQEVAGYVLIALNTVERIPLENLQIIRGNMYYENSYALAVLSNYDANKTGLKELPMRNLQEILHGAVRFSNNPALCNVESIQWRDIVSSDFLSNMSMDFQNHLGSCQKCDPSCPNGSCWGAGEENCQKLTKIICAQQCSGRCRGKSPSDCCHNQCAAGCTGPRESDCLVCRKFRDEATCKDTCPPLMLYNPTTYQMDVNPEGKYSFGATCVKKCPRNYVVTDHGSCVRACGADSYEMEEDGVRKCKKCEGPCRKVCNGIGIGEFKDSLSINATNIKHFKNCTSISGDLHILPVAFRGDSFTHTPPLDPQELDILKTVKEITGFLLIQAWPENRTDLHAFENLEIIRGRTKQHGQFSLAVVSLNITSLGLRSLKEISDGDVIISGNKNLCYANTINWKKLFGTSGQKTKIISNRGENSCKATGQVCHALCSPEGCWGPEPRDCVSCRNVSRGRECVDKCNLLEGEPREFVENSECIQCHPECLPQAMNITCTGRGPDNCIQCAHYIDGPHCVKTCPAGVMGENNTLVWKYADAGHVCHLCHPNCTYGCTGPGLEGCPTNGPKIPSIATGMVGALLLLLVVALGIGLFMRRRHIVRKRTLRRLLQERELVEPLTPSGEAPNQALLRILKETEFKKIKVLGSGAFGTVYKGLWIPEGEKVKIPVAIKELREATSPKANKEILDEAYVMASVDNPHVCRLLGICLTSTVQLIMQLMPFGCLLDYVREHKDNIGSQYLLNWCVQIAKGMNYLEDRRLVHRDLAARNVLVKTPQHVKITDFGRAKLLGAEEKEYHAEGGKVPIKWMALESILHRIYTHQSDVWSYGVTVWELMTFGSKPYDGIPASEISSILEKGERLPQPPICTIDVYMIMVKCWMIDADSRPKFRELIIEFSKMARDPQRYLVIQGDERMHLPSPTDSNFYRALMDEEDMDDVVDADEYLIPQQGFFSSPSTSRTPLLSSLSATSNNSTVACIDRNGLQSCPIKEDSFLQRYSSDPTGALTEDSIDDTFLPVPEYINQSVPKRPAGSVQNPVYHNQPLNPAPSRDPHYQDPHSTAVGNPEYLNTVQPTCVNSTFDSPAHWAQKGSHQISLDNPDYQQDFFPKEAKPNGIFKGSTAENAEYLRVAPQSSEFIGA
T3 sequence (O60674 whole entry): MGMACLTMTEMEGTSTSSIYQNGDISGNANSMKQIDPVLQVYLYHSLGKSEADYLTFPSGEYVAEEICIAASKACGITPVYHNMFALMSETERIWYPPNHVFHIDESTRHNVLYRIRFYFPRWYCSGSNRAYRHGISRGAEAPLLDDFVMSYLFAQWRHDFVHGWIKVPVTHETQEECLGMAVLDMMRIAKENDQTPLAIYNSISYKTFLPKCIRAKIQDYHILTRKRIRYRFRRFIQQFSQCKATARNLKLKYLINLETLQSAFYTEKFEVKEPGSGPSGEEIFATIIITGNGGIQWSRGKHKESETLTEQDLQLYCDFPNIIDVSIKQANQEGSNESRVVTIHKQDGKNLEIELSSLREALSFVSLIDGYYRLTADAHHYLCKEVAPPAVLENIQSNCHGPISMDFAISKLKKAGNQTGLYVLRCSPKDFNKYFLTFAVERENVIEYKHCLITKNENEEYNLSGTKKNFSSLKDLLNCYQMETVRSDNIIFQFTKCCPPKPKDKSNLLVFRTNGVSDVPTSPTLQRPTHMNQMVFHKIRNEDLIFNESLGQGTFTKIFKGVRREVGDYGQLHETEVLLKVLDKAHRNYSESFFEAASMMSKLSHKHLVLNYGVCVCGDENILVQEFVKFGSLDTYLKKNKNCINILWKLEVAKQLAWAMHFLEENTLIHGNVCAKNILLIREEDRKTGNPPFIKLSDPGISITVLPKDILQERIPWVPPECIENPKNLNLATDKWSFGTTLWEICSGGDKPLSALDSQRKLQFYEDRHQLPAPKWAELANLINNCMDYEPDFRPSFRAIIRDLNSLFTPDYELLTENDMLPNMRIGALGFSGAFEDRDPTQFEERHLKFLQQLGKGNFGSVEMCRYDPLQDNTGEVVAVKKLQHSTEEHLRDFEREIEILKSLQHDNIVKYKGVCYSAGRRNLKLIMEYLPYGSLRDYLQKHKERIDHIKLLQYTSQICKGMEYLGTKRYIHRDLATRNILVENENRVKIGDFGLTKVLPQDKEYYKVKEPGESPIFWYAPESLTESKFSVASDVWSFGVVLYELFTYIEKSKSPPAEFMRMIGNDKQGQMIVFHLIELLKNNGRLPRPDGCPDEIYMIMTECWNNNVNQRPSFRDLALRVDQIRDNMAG
T1 sequence (P16234 whole entry): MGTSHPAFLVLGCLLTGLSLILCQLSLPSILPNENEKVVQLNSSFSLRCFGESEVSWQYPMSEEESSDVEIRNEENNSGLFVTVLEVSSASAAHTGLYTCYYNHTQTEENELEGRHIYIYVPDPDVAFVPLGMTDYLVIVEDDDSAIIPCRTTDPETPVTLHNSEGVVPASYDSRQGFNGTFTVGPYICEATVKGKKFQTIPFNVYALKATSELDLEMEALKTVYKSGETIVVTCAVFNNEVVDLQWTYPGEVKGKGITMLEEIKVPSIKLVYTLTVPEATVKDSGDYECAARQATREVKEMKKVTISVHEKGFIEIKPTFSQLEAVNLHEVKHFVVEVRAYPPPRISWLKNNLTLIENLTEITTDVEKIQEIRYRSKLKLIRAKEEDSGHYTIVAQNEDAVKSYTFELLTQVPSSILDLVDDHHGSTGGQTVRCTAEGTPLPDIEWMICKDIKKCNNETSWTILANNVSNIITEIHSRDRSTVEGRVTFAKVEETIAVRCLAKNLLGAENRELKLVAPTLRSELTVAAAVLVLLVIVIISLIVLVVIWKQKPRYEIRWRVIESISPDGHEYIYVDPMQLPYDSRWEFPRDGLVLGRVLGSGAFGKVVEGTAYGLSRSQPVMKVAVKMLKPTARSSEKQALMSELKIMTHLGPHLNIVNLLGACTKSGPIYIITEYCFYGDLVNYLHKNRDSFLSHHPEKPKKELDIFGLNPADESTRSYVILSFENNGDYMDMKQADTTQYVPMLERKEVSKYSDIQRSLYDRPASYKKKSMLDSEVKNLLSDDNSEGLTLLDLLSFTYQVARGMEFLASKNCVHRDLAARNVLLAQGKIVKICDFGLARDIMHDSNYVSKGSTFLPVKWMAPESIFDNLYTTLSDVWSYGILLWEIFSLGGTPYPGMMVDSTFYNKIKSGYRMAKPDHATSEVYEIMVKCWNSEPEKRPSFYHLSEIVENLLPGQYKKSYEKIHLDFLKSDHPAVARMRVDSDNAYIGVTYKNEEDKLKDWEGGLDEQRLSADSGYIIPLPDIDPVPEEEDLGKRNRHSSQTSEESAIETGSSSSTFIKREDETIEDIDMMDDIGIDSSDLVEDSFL
T2 sequence (P00533 whole entry): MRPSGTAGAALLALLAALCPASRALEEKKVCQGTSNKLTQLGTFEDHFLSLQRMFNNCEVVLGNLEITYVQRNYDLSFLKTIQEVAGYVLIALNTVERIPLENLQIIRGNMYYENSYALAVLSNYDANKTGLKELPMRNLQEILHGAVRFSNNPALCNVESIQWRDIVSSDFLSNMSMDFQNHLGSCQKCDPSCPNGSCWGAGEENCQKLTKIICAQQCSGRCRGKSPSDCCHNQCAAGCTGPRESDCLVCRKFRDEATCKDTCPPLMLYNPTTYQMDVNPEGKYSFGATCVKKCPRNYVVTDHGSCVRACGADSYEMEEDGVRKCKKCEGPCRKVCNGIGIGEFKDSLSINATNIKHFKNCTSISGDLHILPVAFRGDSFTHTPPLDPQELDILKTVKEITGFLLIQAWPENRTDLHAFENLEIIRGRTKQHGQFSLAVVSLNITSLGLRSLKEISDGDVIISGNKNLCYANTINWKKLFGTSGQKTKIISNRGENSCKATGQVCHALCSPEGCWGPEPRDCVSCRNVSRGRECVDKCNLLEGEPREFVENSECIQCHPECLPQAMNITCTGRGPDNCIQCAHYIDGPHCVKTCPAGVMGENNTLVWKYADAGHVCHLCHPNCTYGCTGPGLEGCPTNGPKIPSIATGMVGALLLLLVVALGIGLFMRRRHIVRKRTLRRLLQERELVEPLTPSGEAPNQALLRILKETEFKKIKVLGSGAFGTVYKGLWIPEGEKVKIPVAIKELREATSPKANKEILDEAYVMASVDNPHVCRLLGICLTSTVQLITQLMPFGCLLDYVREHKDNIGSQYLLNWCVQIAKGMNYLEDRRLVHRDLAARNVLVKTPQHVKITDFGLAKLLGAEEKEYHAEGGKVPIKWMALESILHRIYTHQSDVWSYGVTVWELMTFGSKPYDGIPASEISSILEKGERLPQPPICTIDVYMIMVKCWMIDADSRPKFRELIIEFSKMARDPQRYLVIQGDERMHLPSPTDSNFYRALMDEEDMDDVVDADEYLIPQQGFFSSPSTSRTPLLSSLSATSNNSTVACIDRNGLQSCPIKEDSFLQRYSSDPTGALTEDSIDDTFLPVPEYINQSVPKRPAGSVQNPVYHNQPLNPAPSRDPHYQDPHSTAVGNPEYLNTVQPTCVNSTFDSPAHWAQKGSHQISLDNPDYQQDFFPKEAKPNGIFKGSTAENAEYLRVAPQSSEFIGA
Chain of Mitogen-activated protein kinase 1 (Homo sapiens) (P28482 whole entry): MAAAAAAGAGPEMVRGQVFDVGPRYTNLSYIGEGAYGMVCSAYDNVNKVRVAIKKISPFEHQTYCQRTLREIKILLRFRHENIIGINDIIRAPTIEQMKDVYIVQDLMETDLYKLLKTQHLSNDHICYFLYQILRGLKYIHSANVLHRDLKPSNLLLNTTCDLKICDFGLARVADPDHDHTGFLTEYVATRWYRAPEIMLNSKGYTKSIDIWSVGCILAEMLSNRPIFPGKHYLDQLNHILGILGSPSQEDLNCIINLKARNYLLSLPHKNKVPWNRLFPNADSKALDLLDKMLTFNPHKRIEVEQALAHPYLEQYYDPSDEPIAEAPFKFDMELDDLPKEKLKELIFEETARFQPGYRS

With C=CC(=O)Nc1cc(Nc2nccc(-c3cn(C)c4ccccc34)n2)c(OC)cc1N(C)CCN(C)C [OSIMERTINIB] the IC50 [1] was […], the IC50 [2] was […] and the IC50 [3] was 33.7 nM. The IC50 [4] was 32.3 nM.

For COc1ccc(Nc2nccc(-c3cn(C)c4ccccc34)n2)cc1OCCOCCn1ccnc1[N+](=O)[O-], the inhibition [5] was 88.2%, the inhibition [6] was 34.8% and the inhibition [7] was 27.9%. For the same molecule, the inhibition [8] was -7.07%, the inhibition [9] was 65.4% and the Drug metabolism [10] was “Metabolite_Detected”. It also gave an IC50 [1] of 4.66 nM, an inhibition [11] of 23.9% and an inhibition [12] of 44.3%. The inhibition [13] was 36.5%, the inhibition [14] was 17.4% and the inhibition [15] was 11.5%. For the same molecule, the Drug metabolism [16] was “Metabolite_Detected”, the Drug metabolism [17] was “Metabolite_Detected” and the inhibition [18] was 79.2%. For the same molecule, the inhibition [19] was 85.7%, the inhibition [20] was -0.41% and the IC50 [21] was 107 nM. The IC50 [22] was 30.9 nM, the inhibition [23] was 32.4% and the inhibition [24] was 50.9%. For the same molecule, the inhibition [25] was 62.7%, the inhibition [26] was 29% and the Drug metabolism [27] was “Metabolite_Detected”. The IC50 [28] was 177 nM, the “Ratio IC50” value [29] was 5.63 and the “Ratio IC50” value [30] was 4.75. The inhibition [31] was 38.1%, the inhibition [32] was 43.2% and the IC50 [2] was 26.2 nM. The Drug metabolism [33] was “Metabolite_Notdetected”, the inhibition [34] was 26.6% and the inhibition [35] was 42.7%. For the same molecule, the inhibition [36] was 84.7%, the IC50 [37] was 1570 nM and the Drug metabolism [38] was “Metabolite_Detected”. It also gave an IC50 [3] of 25 nM, an IC50 [39] of 108 nM and an inhibition [40] of 17%. It also gave an IC50 [41] of 227 nM, an inhibition [42] of 11.8% and an inhibition [43] of 50%. It also gave an inhibition [44] of 8%, an inhibition [45] of 27.4% and an inhibition [46] of 8.02%. The IC50 [47] was 42.5 nM, the inhibition [48] was 9% and the Drug metabolism [49] was “Metabolite_Notdetected”. The IC50 [4] was 5.26 nM and the inhibition [50] was 90.5%.

Cn1cc(-c2ccnc(Nc3ccc(Cl)c(OCCOCCn4ccnc4[N+](=O)[O-])c3)n2)c2ccccc21 gave an IC50 [28] of 2670 nM.

Cc1ccc(OCCOCCn2ccnc2[N+](=O)[O-])cc1Nc1nccc(-c2cn(C)c3ccccc23)n1 gave an IC50 [28] of 1310 nM.
